For experiment [1], the system named is Actinomyces viscosus ATCC 27044. Nature of the experiment: Antibacterial MIC, micro-dilution method. The conditions noted are these: minimum inhibitive concentration; 2-fold dilution series 250-0.12 mg/L, ceiling 250 ppm; 37 °C, 18-24 h; unit not given. The format is cell-based. On the procedure: (§1) A single colony was picked from the Trypticase Digested Soybean peptone agar blood plate (TSA5B) of ordinarily stored bacteria species and used to inoculate corresponding broth culture medium, which was cultivated in a microaerobic environment (P.g needs anaerobic cultivation) with 95% air, 5% CO2 at 37.0° C.±1.0° C., wherein S.m was cultivated for 18-24 h, and the remaining two species were cultivated for 40-48 h. Then corresponding broth cultivate medium was used to adjust the turbidity of the bacteria suspension to 0.5^# McFarland standard, equivalent to 1.0×10^8 CFU/mL.
(§2) The operating steps were:
(§3) a. Preparation of the stock solution of antibacterial pharmaceutical: 1% stock solution of various antibacterial pharmaceuticals was prepared with 100% pure ethanol as solvent. The prepared stock solution was filtered to eliminate bacteria, and was distributed into small portions to be used.
(§4) b. Range of measured concentration: the present experiment used 250 ppm as the ceiling measured concentration of the anti-bacterial pharmaceutical.
(§5) c. Measuring method: micro-dilution method.
(§6) First, 100 μL broth medium was added to each well of the 96-well plate, then 100 μL sterile anti-bacteria pharmaceutical solution, which was diluted 10-fold (1000 mg/L), was added to each well of the first column. Then each well of the first column was mixed repeatedly for 7-8 times using a multi-channel micropipet, and 100 μL sample was transferred to the second column after sufficiently mixing the pharmaceutical with TSB. After being mixed similarly for 7-8 times, 100 μL sample was transferred to the third column, and likewise to the wells of the remaining columns. Thus the concentration of the pharmaceutical was gradiently diluted 2-fold between the columns, from 500 mg/L in the first column to 0.24 mg/L in the last column (the 12th column).
(§7) The bacteria to be tested and the standard bacteria were prepared using the same method as above. […] 0.12 mg/L, and the final inoculation quantity was about […] or 5×10^6 bacteria in each well. […]
For orientation: Broth dilution looks for growth in wells or tubes with falling amounts of substance.

The test system of experiment [2] is Porphyromonas gingivalis ATCC 33277. The experiment can be described thus: Antibacterial MIC, micro-dilution method. The conditions noted are these: minimum inhibitive concentration; anaerobic; 2-fold dilution series 250-0.12 mg/L, ceiling 250 ppm; 37 °C, 18-24 h; unit not given. In kind it is cell-based. How it is done:
as §1, §2, §3, §4, §5, §6, §7

Experiment [3] deals with Streptococcus mutans ATCC 25175. The experiment can be described thus: Antibacterial MIC, micro-dilution method. The conditions noted are these: minimum inhibitive concentration; 2-fold dilution series 250-0.12 mg/L, ceiling 250 ppm; 37 °C, 18-24 h; unit not given. In kind it is cell-based. On the procedure:
as §1, §2, §3, §4, §5, §6, §7

In a further experiment the test system is GM-CSF. The experiment can be described thus: Anti-inflammatory effect in KB cells, LUMINEX analysis of GM-CSF. The conditions noted are these: KB cell supernatant; the larger the value, the stronger the anti-inflammatory ability; test concentration not given. The format is cell-based, human. On the procedure:
(§8) Anti-inflammatory activity was assessed using the KB cell (the epidermis cancer cell in human oral cavity). During the experiment, the KB cell inoculated in the cultivating plate was treated with or without positive control or compound Morusin A. After the treatment, the supernatant of the cultivating medium was collected and stored in −80° C. refrigerator. Inflammation was assessed by measuring several inflammation markers: Prostaglandin E2 (PGE2) in the supernatant was detected by Enzyme-linked immunosorbent assay, and LUMINEX™ multifunctional liquid-phase chip analysis system was used for the detection of granulocyte monocyte colony stimulating factor (GM-CSF), tumor necrosis factor-alpha (TNF-α), and interleukins 1-beta and 6 (IL-1β and IL-6).
(§9) LUMINEX™ multifunctional liquid-phase chip analyses of GM-CSF, TNF-α, IL-1 and IL-6: The 96-well plate was enclosed with enclosing liquid for 30 minutes. Fluorescent microspheres were added into the 96-well plate after dilution. The standard and the samples to be measured were added, and incubated overnight at 4° C. The next day, the supernatant was discarded and 50 μL GM-CSF, TNF-α, IL-1β and IL-6 antibodies were added to each well. After being rinsed for 4 times, the 96-well plate was placed in a shaking table, which was in ambient temperature, to keep the plate away from light for one hour. […]

A further experiment relates to IL-1β. The experiment can be described thus: Anti-inflammatory effect in KB cells, LUMINEX analysis of IL-1β. The following applies: KB cell supernatant; the larger the value, the stronger the anti-inflammatory ability; test concentration not given. In kind it is cell-based, human. How it is done: as §8, §9
The next experiment deals with IL-6. Nature of the experiment: Anti-inflammatory effect in KB cells, LUMINEX analysis of IL-6. In kind it is cell-based, human. The conditions noted are these: KB cell supernatant; the larger the value, the stronger the anti-inflammatory ability; test concentration not given. How it is done:
as §8, §9

A further experiment concerns TNF-α. Nature of the experiment: Anti-inflammatory effect in KB cells, LUMINEX analysis of TNF-α. The format is cell-based, human. The conditions noted are these: KB cell supernatant; the larger the value, the stronger the anti-inflammatory ability; test concentration not given. How it is done:
as §8, §9

We go through one molecule from patent publication US20080287526A1, “Pharmaceuticals for treating or preventing oral diseases” (HAWLEY & HAZEL (BVI) COMPANY LIMITED, priority 2007, published 2008).

`CC1=C[C@H]2c3c(O)cc(-c4cc5ccc(O)cc5o4)cc3O[C@]3(c4ccc(O)cc4O)Oc4cc(O)ccc4[C@H](C1)[C@@H]23` [Morusin A]: the “MIC, A. v ATCC 27044” value in experiment [1] is listed as 3.9. Further, the “MIC, P. g ATCC 33277” value in experiment [2] was determined as 15.6. Also, the “MIC, S. m ATCC 25175” value in experiment [3] came out at 3.9. Also, the “anti-inflammatory effect, GM-CSF” value with GM-CSF is given as 11%. Moreover, in the experiment with IL-1β, the “anti-inflammatory effect, IL-1β” value is given as 23%. Also, the “anti-inflammatory effect, IL-6” value in the experiment with IL-6 amounted to 53%. In addition, the “anti-inflammatory effect, TNF-α” value in the experiment on TNF-α was found to be 93%.
